In one assay the test system is Ehrlich. Briefly: Cytotoxicity against mouse EAC cells assessed as cell growth inhibition measured after 2 hrs by trypan blue exclusion assay. Format: functional, cell-based.
In a further assay the test system is MCF7. Briefly: Cytotoxicity against human MCF7 cells assessed as cell growth inhibition measured after 48 hrs by SRB assay. Format: functional, cell-based. To be noted: MCF7, 48 h. A general note: The SRB assay estimates cell density from bound dye.
A further assay has as its system HepG2. Briefly: Cytotoxicity against human HepG2 cells assessed as cell growth inhibition measured after 48 hrs by SRB assay. Format: functional, cell-based. To be noted: HepG2, 48 h.
The subject of a further assay is A549. Briefly: Cytotoxicity against human A549 cells assessed as cell growth inhibition measured after 48 hrs by SRB assay. It counts as functional, cell-based. To be noted: A549, 48 h.
Assay [1] has as its target T1, Corticotropin-releasing factor receptor 1 (Homo sapiens, UniProt P34998).
T1 sequence (P34998 whole entry): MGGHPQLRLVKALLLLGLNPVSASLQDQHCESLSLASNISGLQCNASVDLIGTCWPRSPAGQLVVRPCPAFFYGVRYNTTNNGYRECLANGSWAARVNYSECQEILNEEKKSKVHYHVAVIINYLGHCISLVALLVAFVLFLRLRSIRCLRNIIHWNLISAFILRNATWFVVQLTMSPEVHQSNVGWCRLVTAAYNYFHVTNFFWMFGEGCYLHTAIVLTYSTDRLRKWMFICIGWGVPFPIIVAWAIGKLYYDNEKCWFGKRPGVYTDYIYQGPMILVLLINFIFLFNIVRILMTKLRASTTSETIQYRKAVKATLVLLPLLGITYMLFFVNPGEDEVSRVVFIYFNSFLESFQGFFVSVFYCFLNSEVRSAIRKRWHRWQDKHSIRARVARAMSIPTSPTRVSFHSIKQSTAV
Briefly: Displacement of [125I-Tyr0]-CRF from recombinant human CRF1 receptor. On the technique in general: Loss of bound radioactivity is the signal in a displacement assay; it reports binding, not function.

Assay [2] has as its target Estrogen receptor beta (Homo sapiens) (UniProt Q92731). Briefly: Displacement of [3H]E2 from ERbeta (unknown origin) by radiometric assay relative to estradiol.
Assay [3] has as its target T2, Estrogen receptor (Homo sapiens) (UniProt P03372).
T2 sequence (whole entry): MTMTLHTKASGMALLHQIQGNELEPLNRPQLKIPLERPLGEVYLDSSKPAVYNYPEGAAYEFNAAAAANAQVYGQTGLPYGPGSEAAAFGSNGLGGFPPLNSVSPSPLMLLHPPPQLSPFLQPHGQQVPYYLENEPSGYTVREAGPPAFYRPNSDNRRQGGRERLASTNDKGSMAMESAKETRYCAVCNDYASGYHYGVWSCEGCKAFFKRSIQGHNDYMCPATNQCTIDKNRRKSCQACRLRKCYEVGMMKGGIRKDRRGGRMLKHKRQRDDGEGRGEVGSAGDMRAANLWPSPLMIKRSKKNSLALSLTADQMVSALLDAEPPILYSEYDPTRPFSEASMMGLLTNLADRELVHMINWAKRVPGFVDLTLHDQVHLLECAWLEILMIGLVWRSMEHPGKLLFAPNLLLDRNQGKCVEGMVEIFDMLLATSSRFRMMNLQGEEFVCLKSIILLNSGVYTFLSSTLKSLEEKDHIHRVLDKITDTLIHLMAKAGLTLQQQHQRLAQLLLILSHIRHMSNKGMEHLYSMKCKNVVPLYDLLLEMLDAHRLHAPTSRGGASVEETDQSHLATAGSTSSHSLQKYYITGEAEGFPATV
Briefly: Displacement of [3H]E2 from ERalpha (unknown origin) by radiometric assay relative to estradiol.

The subject of the next assay is Aspergillus fumigatus. Briefly: Antifungal activity against Aspergillus fumigatus RCMB 002006 assessed as zone of inhibition at 30 ug/ml. Format: functional. To be noted: read-out: IZ.
Another assay deals with Staphylococcus aureus. Briefly: Antibacterial activity against Staphylococcus aureus RCMB 000108 assessed as zone of inhibition at 30 ug/ml. Format: functional. To be noted: read-out: IZ.
In another assay the test system is Escherichia coli. Briefly: Antibacterial activity against Escherichia coli RCMB 000106 assessed as zone of inhibition at 30 ug/ml. It counts as functional. To be noted: read-out: IZ.
In the next assay the test system is Pseudomonas aeruginosa. Briefly: Antibacterial activity against Pseudomonas aeruginosa RCMB 000103 assessed as zone of inhibition at 30 ug/ml. To be noted: read-out: IZ. Format: functional.
The test system of the next assay is Bacillus subtilis. Briefly: Antibacterial activity against Bacillus subtilis RCMB 000109 assessed as zone of inhibition at 30 ug/ml. Format: functional. To be noted: read-out: IZ.
The next assay concerns Candida albicans. Briefly: Antifungal activity against Candida albicans RCMB 0005003 assessed as zone of inhibition at 30 ug/ml. It counts as functional. To be noted: read-out: IZ.
Assay [4] has as its system Syncephalastrum racemosum. Briefly: Antifungal activity against Syncephalastrum racemosum 005004 assessed as zone of inhibition at 30 ug/ml. To be noted: read-out: IZ. It counts as functional.
The test system of another assay is Geotrichum candidum. Briefly: Antifungal activity against Geotrichum candidum 052008 assessed as zone of inhibition at 30 ug/ml. To be noted: read-out: IZ. Format: functional.
Assay [5] is filed under the species Bos taurus. Briefly: Ratio of IC50 for displacement of [3H]RO15-1788 from benzodiazepine receptor in bovine brain membranes in absence of GABA to IC50 for displacement of [3H]RO15-1788 from benzodiazepine receptor in bovine brain membranes in presence of GABA. Format: cell membranes.
The nature of assay [6]: Displacement of [3H]RO15-1788 from benzodiazepine receptor in bovine brain membranes. It counts as cell membranes, Bos taurus, Membrane.
The species entered for assay [7] is Bos taurus. Briefly: Displacement of [3H]RO15-1788 from benzodiazepine receptor in bovine brain membranes at 10 uM relative to control. It counts as cell membranes. To be noted: Membrane.
A short description of assay [8]: Displacement of [3H]RO15-1788 from benzodiazepine receptor in recombinant bovine brain membranes expressed in HEK293 cells after 1 hr. It counts as cell-based, Bos taurus, Membrane.
Another assay has as its system Bel-7402. Briefly: Antiproliferative activity against human Bel7402 cells measured after 24 hrs by MTT assay. Format: functional, cell-based. To be noted: Bel-7402, 24 h. (Tetrazolium assays rely on reduction of a dye to a coloured formazan, in cell work by metabolically active cells.)
A further assay relates to HT-1080. Briefly: Antiproliferative activity against human HT1080 cells measured after 24 hrs by MTT assay. It counts as functional, cell-based. To be noted: HT-1080, 24 h.
Another assay relates to BHK-21. Briefly: Antiproliferative activity against golden hamster BHK21 cells measured after 48 hrs by SRB assay. To be noted: Mesocricetus auratus, BHK-21, 48 h. It counts as cell-based.
Another assay deals with Caco-2. Briefly: Antiproliferative activity against human Caco2 cells measured after 48 hrs by SRB assay. It counts as functional, cell-based. To be noted: Caco-2, 48 h.
Assay [9] deals with Vascular endothelial growth factor receptor 2 (Homo sapiens, UniProt P35968). Briefly: biochemical.
Sequence of Vascular endothelial growth factor receptor 2 (P35968 whole entry): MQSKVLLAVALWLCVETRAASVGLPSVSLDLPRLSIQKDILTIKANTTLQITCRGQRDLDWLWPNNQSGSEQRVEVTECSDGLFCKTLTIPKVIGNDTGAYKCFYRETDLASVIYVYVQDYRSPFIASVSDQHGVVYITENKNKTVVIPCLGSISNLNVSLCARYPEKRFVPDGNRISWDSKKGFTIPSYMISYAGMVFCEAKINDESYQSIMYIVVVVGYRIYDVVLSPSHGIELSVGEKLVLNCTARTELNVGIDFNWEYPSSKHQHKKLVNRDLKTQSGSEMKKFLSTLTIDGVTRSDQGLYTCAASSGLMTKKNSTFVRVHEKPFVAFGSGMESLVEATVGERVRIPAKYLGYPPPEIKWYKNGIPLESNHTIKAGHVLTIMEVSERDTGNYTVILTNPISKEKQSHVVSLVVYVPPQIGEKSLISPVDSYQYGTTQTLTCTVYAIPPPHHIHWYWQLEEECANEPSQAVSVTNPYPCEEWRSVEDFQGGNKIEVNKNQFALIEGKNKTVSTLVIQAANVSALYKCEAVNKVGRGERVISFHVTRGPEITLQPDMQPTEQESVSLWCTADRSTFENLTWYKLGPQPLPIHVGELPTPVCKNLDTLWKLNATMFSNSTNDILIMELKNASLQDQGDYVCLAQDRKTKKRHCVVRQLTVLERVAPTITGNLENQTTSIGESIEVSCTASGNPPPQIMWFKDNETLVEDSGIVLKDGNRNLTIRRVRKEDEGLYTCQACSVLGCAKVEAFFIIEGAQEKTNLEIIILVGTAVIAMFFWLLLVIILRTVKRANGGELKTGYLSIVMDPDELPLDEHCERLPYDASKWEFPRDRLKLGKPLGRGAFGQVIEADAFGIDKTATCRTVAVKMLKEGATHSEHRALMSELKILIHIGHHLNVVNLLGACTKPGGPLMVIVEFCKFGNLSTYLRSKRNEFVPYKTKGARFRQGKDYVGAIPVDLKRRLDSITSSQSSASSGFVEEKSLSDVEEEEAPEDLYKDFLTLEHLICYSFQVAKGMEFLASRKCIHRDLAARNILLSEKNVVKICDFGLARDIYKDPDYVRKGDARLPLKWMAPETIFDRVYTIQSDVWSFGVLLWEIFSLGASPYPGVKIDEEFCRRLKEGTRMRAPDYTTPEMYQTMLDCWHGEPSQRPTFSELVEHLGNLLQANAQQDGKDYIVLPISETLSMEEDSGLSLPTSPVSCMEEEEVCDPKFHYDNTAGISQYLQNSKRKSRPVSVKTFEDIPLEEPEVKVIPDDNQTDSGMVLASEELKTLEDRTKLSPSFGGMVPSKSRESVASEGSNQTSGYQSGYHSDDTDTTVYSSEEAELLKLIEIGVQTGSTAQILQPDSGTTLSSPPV
Description: Inhibition of recombinant human GST-fused KDR kinase expressed in insect Sf21 cells using poly-Glu/Tyr (4:1) peptide as substrate by ECMA
The species entered for a further assay is Oryctolagus cuniculus. Briefly: Potency index, ratio of theophylline IC50 to compound IC50 for inhibition of PDE in rabbit lung homogenates using [8-3H]cAMP as substrate measured 3 times between 3 to 12 mins. Format: tissue-based.
For assay [10], the species on record is Bos taurus. Briefly: Potency index, ratio of theophylline IC50 to compound IC50 for inhibition of PDE in beef heart homogenates using [8-3H]cAMP as substrate measured 3 times between 3 to 12 mins. It counts as tissue-based.

≈ marks a conversion by molar mass, not a printed value.

The text below walks through data of ChEMBL document CHEMBL3994587, “An insight on synthetic and medicinal aspects of pyrazolo[1,5-a]pyrimidine scaffold” (Eur J Med Chem, 2017).

Sequence of Estrogen receptor beta (Homo sapiens) (Q92731 whole entry): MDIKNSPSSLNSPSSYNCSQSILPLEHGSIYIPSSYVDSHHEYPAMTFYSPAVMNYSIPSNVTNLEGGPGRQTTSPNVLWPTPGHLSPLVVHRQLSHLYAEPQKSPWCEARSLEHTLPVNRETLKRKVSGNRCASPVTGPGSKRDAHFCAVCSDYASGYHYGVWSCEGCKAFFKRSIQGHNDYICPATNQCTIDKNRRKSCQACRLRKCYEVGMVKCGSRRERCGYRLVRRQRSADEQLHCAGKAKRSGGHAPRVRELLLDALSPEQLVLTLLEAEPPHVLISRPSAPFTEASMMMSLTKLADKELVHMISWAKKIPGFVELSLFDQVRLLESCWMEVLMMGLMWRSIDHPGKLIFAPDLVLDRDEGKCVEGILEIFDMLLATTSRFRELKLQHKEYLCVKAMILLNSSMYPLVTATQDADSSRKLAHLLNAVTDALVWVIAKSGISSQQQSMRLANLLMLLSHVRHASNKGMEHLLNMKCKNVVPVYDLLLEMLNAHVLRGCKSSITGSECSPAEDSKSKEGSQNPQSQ

`COc1ccc(Cc2nn3c(-c4ccc(OC)cc4)c(C#N)c(N)nc3c2C(=O)Nc2ccc(Cl)cc2)cc1`: in the assay with Ehrlich, the concentration for half-maximal inhibition (IC50) was determined as 25 µg/mL (≈ 46.4 µM).
Turning to `COc1ccc(Nc2nn3c(O)cc(C)nc3c2C(=O)Nc2ccccc2)cc1`, the values for the IC50 in the assay with MCF7, in the assay with HepG2 and with A549 were 4.6 µg/mL (≈ 11.8 µM), 4 µg/mL (≈ 10.3 µM) and 5 µg/mL (≈ 12.8 µM), respectively.
For `CCC(CC)Nc1cc(C)nc2c(-c3ccc(Cl)cc3C)c(C)nn12`, the Ki in assay [1] is 1.7 nM.
Consider `Oc1ccc(-c2nn3cccnc3c2-c2ccc(O)cc2)cc1`, for which the values for the relative binding affinity (RBA) in assay [2] and in [3] were 0.1 and 0.004, respectively.
`Cc1ccc(/N=N/c2c(N)nn3c(-c4ccco4)cc(-c4ccco4)nc23)cc1`: the zone of inhibition at 30 µg/mL in the assay on Aspergillus fumigatus is 21.8 mm; in the assay with Staphylococcus aureus, 22.2 mm; in the assay with Escherichia coli it was 21.9 mm; in the assay with Pseudomonas aeruginosa, 18.5 mm; in the assay on Bacillus subtilis it was 23.3 mm; in the assay with Candida albicans it was 18.1 mm. Also, the zone of inhibition at 30 µg/mL amounted to 14.8 mm in assay [4] and 19.5 mm with Geotrichum candidum.
For the compound `Nc1nn2c(-c3cccs3)cc(-c3cccs3)nc2c1/N=N/c1ccccc1`, the zone of inhibition at 30 µg/mL with Aspergillus fumigatus came out at 15.2 mm; in the assay with Staphylococcus aureus, 15.3 mm; in the assay with Escherichia coli it was 14.9 mm; in the assay on Pseudomonas aeruginosa it was 9.3 mm; in the assay on Bacillus subtilis, 17.9 mm; with Candida albicans, 10 mm. Also, the zone of inhibition at 30 µg/mL in assay [4] is 8.2 mm; in the assay with Geotrichum candidum, 11.3 mm.
Consider `COc1ccc(Nc2nn3c(O)cc(C)nc3c2C(=O)Nc2ccc(Cl)cc2)cc1`, for which the IC50 with MCF7 was found to be 4.2 µg/mL (≈ 9.91 µM); with HepG2 it was 6.1 µg/mL (≈ 14.4 µM); in the assay with A549 it was 5.45 µg/mL (≈ 12.9 µM).
Turning to `COc1ccc(-c2cnn3c(=O)c(-c4ccsc4)c[nH]c23)cc1`, the Ratio IC50 in the assay filed under Bos taurus [5] amounted to 1.25. This compound also showed a Ki in assay [6] of 42.2 nM. The inhibition in the assay filed under Bos taurus [7] came to 92%.
Regarding `CN1C(=O)CN=C(c2ccccc2)c2cc(Cl)ccc21` [DIAZEPAM], the Ki in assay [8] came out at 10 nM.
As for `N#Cc1cnn2c(Nc3cc(C(F)(F)F)cc(C(F)(F)F)c3)cc(COCCN3CCCCC3)nc12`, the IC50 in the assay with Bel-7402 was 13700 nM; in the assay with HT-1080, 17600 nM.
`Cc1c(-c2ccnc3c(/N=N/c4ccc(F)cc4)c(N)nn23)sc2nc3ccccc3n12`: the IC50 in the assay with BHK-21 amounted to 2.3 µg/mL (≈ 5.2 µM); in the assay with Caco-2, 0.5 µg/mL (≈ 1.13 µM).
For the compound `c1ccc(-c2cnn3cc(-c4ccc(OCCN5CCOCC5)cc4)cnc23)cc1`, in assay [9], the IC50 came to 32 nM.
Turning to `Cc1cc(NCCO)n2nccc2n1`, the Ratio IC50 in the assay filed under Oryctolagus cuniculus was 0.5; in the assay listed under Bos taurus [10], 3.7.

One may read the IC50 as the concentration needed to halve the response being measured. One may read the Ki as the dissociation constant of the complex between target and ligand, obtained from inhibition or displacement. One may read the inhibition as how much of the control response was suppressed. A lower inhibition goes with a response near the control.
